Data on 7 compounds can be found in PubChem BioAssay AID1259407 (Chemical Carcinogenesis Research Information System (CCRIS), 2018).

The structures appear in SMILES notation. The source made the active and inactive calls. How the calls were made is not given here.

For this data set, the system named is CCRIS mutagenicity, Ames/micronucleus/aberration tests. The experiment in a line: CCRIS mutagenicity studies.
Setting [1] is: Test System: AMES SALMONELLA TYPHIMURIUM, Strain/Indicator: TA98, Metabolic Activation: NONE, Method: STANDARD PLATE.
Setting [2] is: Test System: AMES SALMONELLA TYPHIMURIUM, Strain/Indicator: TA100, Metabolic Activation: NONE, Method: STANDARD PLATE.
[3] abbreviates: Test System: AMES SALMONELLA TYPHIMURIUM, Strain/Indicator: TA1535, Metabolic Activation: NONE, Method: STANDARD PLATE.
The mark [4] stands for this setting: Test System: AMES SALMONELLA TYPHIMURIUM, Strain/Indicator: TA1537, Metabolic Activation: NONE, Method: STANDARD PLATE.
[5] abbreviates: Test System: E. COLI, Strain/Indicator: WP2 UVRA, Metabolic Activation: NONE, Method: STANDARD PLATE.

Take `c1ccc(-c2ccc(-c3ccccc3)cc2)cc1`: the mutagenic call was “inactive; negative” (Test System: AMES SALMONELLA TYPHIMURIUM, Strain/Indicator: TA98, Metabolic Activation: HAMSTER, LIVER, S-9, AROCLOR 1254, Method: STANDARD PLATE); “inactive; negative” under setting [1]; “inactive; negative” (Test System: AMES SALMONELLA TYPHIMURIUM, Strain/Indicator: TA98, Metabolic Activation: RAT, LIVER, S-9, AROCLOR 1254, Method: STANDARD PLATE); “inactive; negative” (Test System: AMES SALMONELLA TYPHIMURIUM, Strain/Indicator: TA100, Metabolic Activation: HAMSTER, LIVER, S-9, AROCLOR 1254, Method: STANDARD PLATE); “inactive; negative” under setting [2]; “inactive; negative” (Test System: AMES SALMONELLA TYPHIMURIUM, Strain/Indicator: TA100, Metabolic Activation: RAT, LIVER, S-9, AROCLOR 1254, Method: STANDARD PLATE). Also, the mutagenic call (Test System: AMES SALMONELLA TYPHIMURIUM, Strain/Indicator: TA1535, Metabolic Activation: HAMSTER, LIVER, S-9, AROCLOR 1254, Method: STANDARD PLATE) is “inactive; negative”; the mutagenic call under setting [3] is “inactive; negative”; the mutagenic call (Test System: AMES SALMONELLA TYPHIMURIUM, Strain/Indicator: TA1535, Metabolic Activation: RAT, LIVER, S-9, AROCLOR 1254, Method: STANDARD PLATE) was “inactive; negative”; the mutagenic call (Test System: AMES SALMONELLA TYPHIMURIUM, Strain/Indicator: TA1537, Metabolic Activation: HAMSTER, LIVER, S-9, AROCLOR 1254, Method: STANDARD PLATE) was “inactive; negative”; the mutagenic call under setting [4] was “inactive; negative”; the mutagenic call (Test System: AMES SALMONELLA TYPHIMURIUM, Strain/Indicator: TA1537, Metabolic Activation: RAT, LIVER, S-9, AROCLOR 1254, Method: STANDARD PLATE) is “inactive; negative”. Moreover, the mutagenic call by setting is: (Test System: AMES SALMONELLA TYPHIMURIUM, Strain/Indicator: TA1538, Metabolic Activation: HAMSTER, LIVER, S-9, AROCLOR 1254, Method: STANDARD PLATE) “inactive; negative”; (Test System: AMES SALMONELLA TYPHIMURIUM, Strain/Indicator: TA1538, Metabolic Activation: NONE, Method: STANDARD PLATE) “inactive; negative”; (Test System: AMES SALMONELLA TYPHIMURIUM, Strain/Indicator: TA1538, Metabolic Activation: RAT, LIVER, S-9, AROCLOR 1254, Method: STANDARD PLATE) “inactive; negative”; (Test System: MOUSE LYMPHOMA, Strain/Indicator: L5178Y (TK+/TK-), Metabolic Activation: NONE, Method: SUSPENSION/PLATE) “inactive; negative. reevaluation of results: negative”; (Test System: MOUSE LYMPHOMA, Strain/Indicator: L5178Y (TK+/TK-), Metabolic Activation: RAT, LIVER, S-9, AROCLOR 1254, Method: SUSPENSION/PLATE) “active; positive. reevaluation of results: equivocal”.

For `Nc1c2ccccc2cc2ccccc12`, the mutagenic call is “active; positive” (Test System: AMES SALMONELLA TYPHIMURIUM, Strain/Indicator: TA98, Metabolic Activation: RAT, LIVER, S-9, AROCLOR 1254 (2%), Method: STANDARD PLATE); “active; positive” (Test System: AMES SALMONELLA TYPHIMURIUM, Strain/Indicator: TA98, Metabolic Activation: RAT, LIVER, S-9, AROCLOR 1254 (4%), Method: STANDARD PLATE); “active; positive” (Test System: AMES SALMONELLA TYPHIMURIUM, Strain/Indicator: TA100, Metabolic Activation: RAT, LIVER, S-9, AROCLOR 1254 (2%), Method: STANDARD PLATE); “inactive; negative” (Test System: AMES SALMONELLA TYPHIMURIUM, Strain/Indicator: TA1535, Metabolic Activation: RAT, LIVER, S-9, AROCLOR 1254 (2%), Method: STANDARD PLATE); “active; positive” (Test System: AMES SALMONELLA TYPHIMURIUM, Strain/Indicator: TA1537, Metabolic Activation: RAT, LIVER, S-9, AROCLOR 1254 (2%), Method: STANDARD PLATE).

Take `O=C1OC(CN2CCOCC2)CN1/N=C/c1ccc([N+](=O)[O-])o1` (stereo unspecified): the mutagenic call by setting is: (Test System: E. COLI, Strain/Indicator: WP2, Metabolic Activation: NONE, Method: SPOT) “active; positive”; (Test System: E. COLI, Strain/Indicator: WP2 UVRA, Metabolic Activation: NONE, Method: SPOT) “active; positive”; under setting [5], “active; positive”.

As to `CN1C(=O)CC(=O)N(c2ccccc2)c2cc(Cl)ccc21`, the mutagenic call was “inactive; negative” under setting [1]; “inactive; negative” (Test System: AMES SALMONELLA TYPHIMURIUM, Strain/Indicator: TA98, Metabolic Activation: RAT, LIVER, S-9, PHENOBARBITAL AND 5,6-BENZOFLAVONE, Method: STANDARD PLATE); “inactive; negative” under setting [2]; “inactive; negative” (Test System: AMES SALMONELLA TYPHIMURIUM, Strain/Indicator: TA100, Metabolic Activation: RAT, LIVER, S-9, PHENOBARBITAL AND 5,6-BENZOFLAVONE, Method: STANDARD PLATE); “inactive; negative” under setting [3]; “inactive; negative” (Test System: AMES SALMONELLA TYPHIMURIUM, Strain/Indicator: TA1535, Metabolic Activation: RAT, LIVER, S-9, PHENOBARBITAL AND 5,6-BENZOFLAVONE, Method: STANDARD PLATE). In addition, the mutagenic call is, setting by setting: under setting [4], “inactive; negative”; (Test System: AMES SALMONELLA TYPHIMURIUM, Strain/Indicator: TA1537, Metabolic Activation: RAT, LIVER, S-9, PHENOBARBITAL AND 5,6-BENZOFLAVONE, Method: STANDARD PLATE) “inactive; negative”; under setting [5], “inactive; negative”.

With `CC(Br)C(=O)NCc1ccc(Cl)cc1` (stereo unspecified), the mutagenic call is “active; positive” (Test System: AMES SALMONELLA TYPHIMURIUM, Strain/Indicator: TA100, Metabolic Activation: MOUSE, LIVER, S-9, AROCLOR 1254, Method: STANDARD PLATE) and “active; positive” under setting [2].

`C/C=C1\C[C@@H](C)[C@](C)(O)C(=O)OC[C@H]2CCN3CC[C@@H](OC1=O)C23` (stereo partly specified): the mutagenic call (Test System: UDS RAT HEPATOCYTES, Strain/Indicator: THY INCORP, Metabolic Activation: NONE, Method: AUTORADIOGRAPHY) was “inactive; negative”.

Consider `O[C@H]1c2cccc3ccc4cccc(c4c23)[C@@H]1O`, for which the mutagenic call by setting is: (Test System: AMES SALMONELLA TYPHIMURIUM, Strain/Indicator: TA98, Metabolic Activation: NONE, Method: PREINCUBATION) “inactive; negative”; (Test System: AMES SALMONELLA TYPHIMURIUM, Strain/Indicator: TA98, Metabolic Activation: RAT, LIVER, S-9, AROCLOR 1254, Method: PREINCUBATION) “inactive; negative”; (Test System: AMES SALMONELLA TYPHIMURIUM, Strain/Indicator: TA100, Metabolic Activation: NONE, Method: PREINCUBATION) “inactive; negative”; (Test System: AMES SALMONELLA TYPHIMURIUM, Strain/Indicator: TA100, Metabolic Activation: RAT, LIVER, S-9, AROCLOR 1254, Method: PREINCUBATION) “inactive; negative”.
